The text below walks through data of US20170362621A1, “ENGINEERED MULTIFUNCTIONAL ENZYMES AND METHODS OF USE” (Danisco US Inc., priority 2014, published 2017).

Where a chain is given by its changes, count along the chain named.

Type in all cases: biochemical
Assay [1] has as its target T1, Trichoderma reesei Bgl1 variant Bgl1-var-03, V43L (numbered per mature Bgl1, SEQ ID NO:3) (Trichoderma reesei, UniProt Q12715, V74L).
T1 construct: diluted fermentation product
T1 sequence (Q12715 32-744 V74L): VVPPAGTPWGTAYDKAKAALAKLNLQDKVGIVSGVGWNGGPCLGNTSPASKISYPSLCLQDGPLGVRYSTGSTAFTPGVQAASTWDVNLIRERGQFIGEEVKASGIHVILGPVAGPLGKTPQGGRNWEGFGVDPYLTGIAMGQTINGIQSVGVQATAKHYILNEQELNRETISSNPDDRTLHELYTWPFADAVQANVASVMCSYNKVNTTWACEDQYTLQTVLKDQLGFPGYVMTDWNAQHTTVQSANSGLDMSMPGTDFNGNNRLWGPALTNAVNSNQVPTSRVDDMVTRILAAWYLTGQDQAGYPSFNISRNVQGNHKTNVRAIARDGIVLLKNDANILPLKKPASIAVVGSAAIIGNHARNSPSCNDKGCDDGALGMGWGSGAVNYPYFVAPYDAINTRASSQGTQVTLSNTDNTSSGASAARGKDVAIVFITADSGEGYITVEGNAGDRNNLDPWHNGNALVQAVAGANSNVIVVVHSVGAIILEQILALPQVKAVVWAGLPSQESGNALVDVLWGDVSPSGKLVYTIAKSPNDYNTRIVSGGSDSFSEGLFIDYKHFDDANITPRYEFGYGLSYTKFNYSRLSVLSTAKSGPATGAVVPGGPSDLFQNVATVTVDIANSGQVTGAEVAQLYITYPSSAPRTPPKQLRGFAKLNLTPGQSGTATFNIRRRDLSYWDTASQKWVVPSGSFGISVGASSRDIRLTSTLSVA
As to the kind of experiment: steady state kinetics, hydrolysis of pNpG. The source says: (§1) The Bgl1 variants of the table above were produced as follows. The nucleotide sequences encoding these variants were synthesized by an external vendor (BaseClear, Leiden, the Netherlands), and cloned into the pTTTpyr2 vector (see, e.g., published PCT application WO2014029808). Protoplasts of a Trichoderma reesei strain (e.g., the hexa-delete strain of International Publication WO05/001036) with its cbh1, cbh2, eg1, eg2, eg3, and bgl1 deleted) were transformed with plasmid DNA encoding the variants and wild type. The resulting transformants were fermented using standard Trichoderma reesei fermentation procedures.
(§2) Variants 02, 03 and 12 were diluted and incubated with varying concentrations of para-nitrophenol-beta-D-xylopyranoside (or para-nitrophenol-beta-D-xyloside) (pNpX) and para-nitrophenol-beta-D-glucopyranoside (pNpG) in the concentration range of 0.1-9 mM at 37° C. for 30 minutes. Reactions were stopped by addition of 100 μL 0.5 M sodium carbonate and absorbance was measured at 410 nm. Background subtracted OD410 absorbances were plotted against substrate concentration (FIG. 6B-E) and the data was fitted with a function for Michaelis-Menten kinetics using the statistical software package R. Michaelis constants and relative maximum velocities for hydrolysis of pNpX and pNpG were reported in Tables 6 and 7, below, respectively.

For assay [2], the target named is T2, Trichoderma reesei Bgl1 variant Bgl1-var-12, V43F/W237A (numbered per mature Bgl1, SEQ ID NO:3) (Trichoderma reesei, UniProt Q12715, V74F/W268A).
T2 construct: diluted fermentation product
T2 sequence (Q12715 32-744 V74F/W268A): T1 sequence (Q12715 32-744 V74L) with L43F, W237A
The experiment in a line: steady state kinetics, hydrolysis of pNpG.
Text: as §1, §2

Assay [3] concerns the target T3, Trichoderma reesei beta-glucosidase I (Bgl1), wild type, SEQ ID NO:2 (mature SEQ ID NO:3) (Trichoderma reesei, UniProt Q12715).
T3 construct: secreted mature protein
T3 sequence (Q12715 32-744): T1 sequence (Q12715 32-744 V74L) with L43V
As to the kind of experiment: steady state kinetics, hydrolysis of pNpG. The note with it: 0.1-9 mM, 37° C., 30 minutes.
Text: as §1, §2

The target of assay [4] is T4, Trichoderma reesei Bgl1 variant Bgl1-var-02, V43F (numbered per mature Bgl1, SEQ ID NO:3) (Trichoderma reesei, UniProt Q12715, V74F).
T4 construct: diluted fermentation product
T4 sequence (Q12715 32-744 V74F): T1 sequence (Q12715 32-744 V74L) with L43F
As to the kind of experiment: steady state kinetics, hydrolysis of pNpG.
Text: as §1, §2

Assay [5] deals with T1, Trichoderma reesei Bgl1 variant Bgl1-var-03, V43L (numbered per mature Bgl1, SEQ ID NO:3). As to the kind of experiment: steady state kinetics, hydrolysis of pNpX.
Text: as §1, §2
(§3) It was noted that the data for pNpX hydrolysis by the wild type Bgl1 could not be fitted with the Michaelis-Menten function. In order to calculate a Michalis constant the maximum velocity obtained for Variant 03 was used.

Assay [6] concerns the target T2, Trichoderma reesei Bgl1 variant Bgl1-var-12, V43F/W237A (numbered per mature Bgl1, SEQ ID NO:3). As to the kind of experiment: steady state kinetics, hydrolysis of pNpX.
Text: as §1, §2, §3

In assay [7] the target is T3, Trichoderma reesei beta-glucosidase I (Bgl1), wild type, SEQ ID NO:2 (mature SEQ ID NO:3). The experiment in a line: steady state kinetics, hydrolysis of pNpX. The note with it: not fitted, maximum velocity obtained for Variant 03 was used.
Text: as §1, §2, §3

Assay [8] deals with T4, Trichoderma reesei Bgl1 variant Bgl1-var-02, V43F (numbered per mature Bgl1, SEQ ID NO:3). As to the kind of experiment: steady state kinetics, hydrolysis of pNpX.
Text: as §1, §2, §3

[9] abbreviates: pNpG, 0.1-9 mM, 37° C., 30 minutes.
Setting [10] is: fold reduction versus wild type, Table 7.
Where [11] appears, read: pNpX, 0.1-9 mM, 37° C., 30 minutes.

With `O=[N+]([O-])c1ccc(O[C@@H]2O[C@H](CO)[C@@H](O)[C@H](O)[C@H]2O)cc1` [pNpG, para-nitrophenol-beta-D-glucopyranoside], the “Relative Vmax” value is reported as 87 ± 2 in assay [1] (setting [9]), 27 ± 10 in assay [2] (setting [9]), 100.0 ± 0.1 in assay [3] and 46 ± 6 in assay [4] (setting [9]). The “efficiency for hydrolysis of pNpG compared with Bgl1 wild type” value in assay [1] (versus wild type, Table 7) is recorded as “approximately equal”. Besides, the “efficiency for hydrolysis of pNpG, reduced relative to Bgl1 wild type” value turned out to be 26 × in assay [2] (setting [10]) and 8 × in assay [4] (setting [10]).
Consider `O=[N+]([O-])c1ccc(O[C@@H]2OC[C@@H](O)[C@H](O)[C@H]2O)cc1` [pNpX, para-nitrophenol-beta-D-xylopyranoside], for which the “Relative Vmax” value in assay [5] (setting [11]) is reported as 100 ± 4; in assay [6] (setting [11]) it was 89 ± 4; in assay [7], 100 ± 4; in assay [8] (setting [11]) it was 93 ± 4. Further, the “more efficient hydrolysis of pNpX as compared to the wild type Bgl1” value is on record as 6-7 fold in assay [5] (ratio to wild type, Table 6) and 6-7 fold in assay [8] (ratio to wild type, Table 6). Moreover, the “higher efficiency of pNpX hydrolysis than the wild type” value in assay [6] (ratio to wild type, Table 6) was “about 2 ×”.
